Results reported in ChEMBL document CHEMBL4715701, “A new chromanone derivative isolated from Hypericum lissophloeus (Hypericaceae) potentiates GABAA receptor currents in a subunit specific fashion” (Bioorg Med Chem, 2016).
Activity calls are given as the source filed them. The calls are words filed in the database; no cut-off is given here.

Key:
[1] = Ex vivo inhibition of synaptosomal serotonin re-uptake 10 to 100 uM relative to control; assay type: functional, subcellular; conditions: Synaptosome; dose 10-100 µM
[2] = target: T1, GABA-A receptor; alpha-1/beta-2/gamma-2 (Homo sapiens) (UniProt P14867+P47870+P18507); assay: Allosteric modulation of GABAA alpha1beta2gamma2 (unknown origin) expressed in Xenopus oocytes assessed as potentiation of GABA-induced current response at 0.1 uM at -80 mV holding potential incubated for 3 mins by two electrode voltage clamp method relative to control; assay type: cell-based; conditions: Oocyte, filed as positive allosteric modulator
[3] = target: T1, GABA-A receptor; alpha-1/beta-2/gamma-2 (Homo sapiens); assay: Allosteric modulation of GABAA alpha1beta2gamma2 (unknown origin) expressed in Xenopus oocytes assessed as potentiation of GABA-induced current response at 3 uM at -80 mV holding potential incubated for 3 mins by two electrode voltage clamp method relative to control; assay type: cell-based; conditions: Oocyte, filed as positive allosteric modulator
[4] = target: T1, GABA-A receptor; alpha-1/beta-2/gamma-2 (Homo sapiens); assay: Allosteric modulation of GABAA alpha1beta2gamma2 (unknown origin) expressed in Xenopus oocytes at 3 uM at -80 mV holding potential incubated for 3 mins by two electrode voltage clamp method relative to control; assay type: cell-based; conditions: Oocyte
[5] = target: T1, GABA-A receptor; alpha-1/beta-2/gamma-2 (Homo sapiens); assay: Allosteric modulation of GABAA alpha1beta2gamma2 (unknown origin) expressed in Xenopus oocytes assessed as potentiation of GABA-induced current response at 30 uM at -80 mV holding potential incubated for 3 mins by two electrode voltage clamp method; assay type: cell-based; conditions: Oocyte, filed as positive allosteric modulator
[6] = target: T1, GABA-A receptor; alpha-1/beta-2/gamma-2 (Homo sapiens); assay: Allosteric modulation of GABAA alpha1beta2gamma2 (unknown origin) expressed in Xenopus oocytes assessed as potentiation of GABA-induced current response at 10 uM at -80 mV holding potential incubated for 3 mins by two electrode voltage clamp method; assay type: cell-based; conditions: Oocyte, filed as positive allosteric modulator
[7] = test system: Oocyte; assay: Allosteric modulation of GABAA alpha3beta2gamma2 (unknown origin) expressed in Xenopus oocytes assessed as potentiation of GABA-induced current response at 3 uM at -80 mV holding potential incubated for 3 mins by two electrode voltage clamp method; assay type: cell-based; conditions: Homo sapiens, filed as positive allosteric modulator
[8] = test system: Oocyte; assay: Allosteric modulation of GABAA alpha2beta2gamma2 (unknown origin) expressed in Xenopus oocytes assessed as potentiation of GABA-induced current response at 3 uM at -80 mV holding potential incubated for 3 mins by two electrode voltage clamp method; assay type: cell-based; conditions: Homo sapiens, filed as positive allosteric modulator
[9] = target: Gamma-aminobutyric acid receptor subunit alpha-5/beta-2/gamma-2 (Homo sapiens) (UniProt P47870+P18507+P31644); assay: Allosteric modulation of GABAA alpha5beta2gamma2 (unknown origin) expressed in Xenopus oocytes assessed as potentiation of GABA-induced current response at 3 uM at -80 mV holding potential incubated for 3 mins by two electrode voltage clamp method; assay type: cell-based; conditions: Oocyte, filed as positive allosteric modulator
[10] = test system: Oocyte; assay: Allosteric modulation of GABAA alpha6beta2gamma2 (unknown origin) expressed in Xenopus oocytes assessed as potentiation of GABA-induced current response at 3 uM at -80 mV holding potential incubated for 3 mins by two electrode voltage clamp method; assay type: cell-based; conditions: Homo sapiens, filed as positive allosteric modulator
[11] = target: GABA-A receptor; alpha-1/beta-3/gamma-2 (Homo sapiens) (UniProt P14867+P18507+P28472); assay: Allosteric modulation of GABAA alpha1beta3gamma2 (unknown origin) expressed in Xenopus oocytes assessed as potentiation of GABA-induced current response at 3 uM at -80 mV holding potential incubated for 3 mins by two electrode voltage clamp method; assay type: cell-based; conditions: Oocyte, filed as positive allosteric modulator
[12] = target: T1, GABA-A receptor; alpha-1/beta-2/gamma-2 (Homo sapiens); assay: Allosteric modulation of GABAA alpha1beta2gamma2 (unknown origin) expressed in Xenopus oocytes assessed as potentiation of GABA-induced current response at 3 uM at -80 mV holding potential incubated for 3 mins by two electrode voltage clamp method; assay type: cell-based; conditions: Oocyte, filed as positive allosteric modulator
[13] = target: GABA A receptor alpha-1/beta-1/gamma-2 (Homo sapiens) (UniProt P14867+P18507+P18505); assay: Allosteric modulation of GABAA alpha1beta1gamma2 (unknown origin) expressed in Xenopus oocytes assessed as potentiation of GABA-induced current response at 3 uM at -80 mV holding potential incubated for 3 mins by two electrode voltage clamp method; assay type: cell-based; conditions: Oocyte, filed as positive allosteric modulator
[14] = target: Gamma-aminobutyric acid receptor subunit alpha-1/beta-2/delta (Homo sapiens) (UniProt P14867+P47870+O14764); assay: Allosteric modulation of GABAA alpha1beta2delta (unknown origin) expressed in Xenopus oocytes assessed as potentiation of GABA-induced current response at 3 uM at -80 mV holding potential incubated for 3 mins by two electrode voltage clamp method; assay type: cell-based; conditions: Oocyte, filed as positive allosteric modulator
[15] = organism: Homo sapiens; assay: Allosteric modulation of GABA(A)/BzR (unknown origin) assessed as potentiation of GABA-induced current response at 3 uM relative to control; conditions: filed as positive allosteric modulator
[16] = test system: Oocyte; assay: Allosteric modulation of GABAA alpha1S269Ibeta2N265Igamma2S280I mutant (unknown origin) expressed in Xenopus oocytes assessed as potentiation of GABA-induced current response at 3 uM at -80 mV holding potential incubated for 3 mins by two electrode voltage clamp method; assay type: cell-based; conditions: Homo sapiens
[17] = test system: Oocyte; assay: Allosteric modulation of GABAA alpha1S269Ibeta2gamma2 mutant (unknown origin) expressed in Xenopus oocytes assessed as potentiation of GABA-induced current response at 3 uM at -80 mV holding potential incubated for 3 mins by two electrode voltage clamp method; assay type: cell-based; conditions: Homo sapiens
[18] = test system: Oocyte; assay: Allosteric modulation of GABAA alpha1beta2N265Igamma2 mutant (unknown origin) expressed in Xenopus oocytes assessed as potentiation of GABA-induced current response at 3 uM at -80 mV holding potential incubated for 3 mins by two electrode voltage clamp method; assay type: cell-based; conditions: Homo sapiens
[19] = test system: Oocyte; assay: Allosteric modulation of GABAA alpha1beta2gamma2S280I mutant (unknown origin) expressed in Xenopus oocytes assessed as potentiation of GABA-induced current response at 3 uM at -80 mV holding potential incubated for 3 mins by two electrode voltage clamp method; assay type: cell-based; conditions: Homo sapiens
[20] = target: T2, GABA-A receptor; alpha-1/beta-2/gamma-2 (Homo sapiens, UniProt P14867+P18507+P47870); assay: Allosteric modulation of GABAA alpha1beta2gamma2 (unknown origin) expressed in Xenopus oocytes assessed as potentiation of GABA-induced current response at -80 mV holding potential incubated for 3 mins by two electrode voltage clamp method; assay type: cell-based, Oocyte
T2 sequence (P14867 whole entry): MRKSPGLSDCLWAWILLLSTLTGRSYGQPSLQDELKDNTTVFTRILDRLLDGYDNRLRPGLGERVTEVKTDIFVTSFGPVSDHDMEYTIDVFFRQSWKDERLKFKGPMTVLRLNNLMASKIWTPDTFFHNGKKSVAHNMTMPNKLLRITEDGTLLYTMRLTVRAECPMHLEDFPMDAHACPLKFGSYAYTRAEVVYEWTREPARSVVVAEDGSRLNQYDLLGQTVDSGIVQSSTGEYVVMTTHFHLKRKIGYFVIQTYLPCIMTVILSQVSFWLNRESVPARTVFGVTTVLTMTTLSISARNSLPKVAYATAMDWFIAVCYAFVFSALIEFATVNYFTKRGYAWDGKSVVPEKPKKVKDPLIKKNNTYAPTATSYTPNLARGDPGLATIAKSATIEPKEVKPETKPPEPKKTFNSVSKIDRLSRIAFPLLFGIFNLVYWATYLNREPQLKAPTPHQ
T2 sequence (P47870 whole entry): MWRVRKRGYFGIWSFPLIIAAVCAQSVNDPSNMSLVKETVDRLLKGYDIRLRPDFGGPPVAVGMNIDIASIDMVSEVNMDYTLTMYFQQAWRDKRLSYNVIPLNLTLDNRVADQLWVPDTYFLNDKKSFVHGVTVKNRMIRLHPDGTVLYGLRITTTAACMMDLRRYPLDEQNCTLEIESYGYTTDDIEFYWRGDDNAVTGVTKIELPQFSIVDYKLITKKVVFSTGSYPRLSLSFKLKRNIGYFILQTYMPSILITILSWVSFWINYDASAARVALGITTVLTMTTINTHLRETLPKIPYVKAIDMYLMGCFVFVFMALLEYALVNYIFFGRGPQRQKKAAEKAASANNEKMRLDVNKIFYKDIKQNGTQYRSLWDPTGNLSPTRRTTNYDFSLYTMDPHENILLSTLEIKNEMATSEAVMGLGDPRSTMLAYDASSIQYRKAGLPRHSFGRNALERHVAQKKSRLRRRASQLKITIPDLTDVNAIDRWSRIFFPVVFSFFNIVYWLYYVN
T2 sequence (P18507 whole entry): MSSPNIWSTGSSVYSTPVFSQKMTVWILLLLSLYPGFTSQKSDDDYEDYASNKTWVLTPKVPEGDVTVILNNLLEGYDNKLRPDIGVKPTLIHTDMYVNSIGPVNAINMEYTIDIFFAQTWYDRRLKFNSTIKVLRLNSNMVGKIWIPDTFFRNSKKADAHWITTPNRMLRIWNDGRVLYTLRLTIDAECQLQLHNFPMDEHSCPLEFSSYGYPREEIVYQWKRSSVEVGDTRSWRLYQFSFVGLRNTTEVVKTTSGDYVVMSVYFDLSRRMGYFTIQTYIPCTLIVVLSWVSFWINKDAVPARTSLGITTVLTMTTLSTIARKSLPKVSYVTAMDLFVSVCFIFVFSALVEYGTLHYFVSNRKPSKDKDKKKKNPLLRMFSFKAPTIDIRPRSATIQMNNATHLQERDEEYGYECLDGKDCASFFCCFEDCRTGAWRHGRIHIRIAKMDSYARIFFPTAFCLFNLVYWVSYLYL

[21] = target: T1, GABA-A receptor; alpha-1/beta-2/gamma-2 (Homo sapiens); assay: Allosteric modulation of GABAA alpha1beta2gamma2 (unknown origin) expressed in Xenopus oocytes assessed as potentiation of GABA-induced current response at -80 mV holding potential incubated for 3 mins by two electrode voltage clamp method relative to control; assay type: cell-based; conditions: Oocyte, filed as positive allosteric modulator
[22] = Ex vivo inhibition of synaptosomal serotonin re-uptake 100 uM; assay type: functional, subcellular; conditions: Synaptosome

Work on CC(C)=CCC[C@]1(C)[C@@H](CC=C(C)C)C[C@]2(CC=C(C)C)C(=O)C(CC=C(C)C)=C(O)[C@@]1(C(=O)C(C)C)C2=O yielded an inhibition [1] of 100%.
With CN1C(=O)CN=C(c2ccccc2)c2cc(Cl)ccc21 the Activity [2] was > 200%.
With CC(C)=CCc1c(O)cc2c(c1O)C(=O)[C@H](C)[C@@H](C)O2 the Activity [3] was 3830%, the Activity [4] was 0.71% and the Activity [5] was “Active”. The Activity [6] was “Active”, the Activity [2] was 60% and the Activity [7] was “Active”. For the same compound, the Activity [8] was “Active”, the Activity [9] was “Active” and the Activity [10] was “Active”. The Activity [11] was “Active”, the Activity [12] was “Active” and the Activity [13] was “Active”. For the same compound, the Activity [14] was “Active”, the Activity [15] was 459% and the Activity [16] was “inactive”. The Activity [17] was “inactive”, the Activity [18] was “inactive” and the Activity [19] was “inactive”. For the same compound, the EC50 [20] was 4.5 µM, the Activity [21] was 4430% and the inhibition [22] was “inactive”.
